# In patent US20050124683A1, “HIV protease inhibitors, compositions containing the same, their pharmaceutical uses and materials for their synthesis” (priority 2003, published 2005):
# Legend:
# HIV-1 protease = target: T1, HIV-1 protease (Human immunodeficiency virus type 1 group M subtype B, UniProt P04585, Q495S); assay: HIV-1 Protease RET assay (Ki, resonance energy transfer); assay type: biochemical; details: Q7S mutant HIV-1 protease; read-out: Ki (nm)
# T1 construct: made in house
# Description: Ki's for the inhibitors of HIV-1 protease were determined using a resonance energy transfer (RET) assay. […] This enzyme is first partially purified as inclusion bodies from cell lysate. It is then solublized in 8M urea and passed through a Q-Sepharose column (Pharmacia) for further purification. To refold this protein, samples containing Q7S is dialyzed into 50 mM sodium phosphate pH 7.0, 50 mM NaCl, 10 mM DTT, and 10% glycerol.
# The commercially available peptide substrate (Molecular Probes Cat. # H-2930) RE(EDANS)SQNYPIVQK(DABCYL)R is used to assess activity and Ki's. This peptide is cleaved quantitatively by HIV-1 Pr at the Tyr-Pro bond. The EDANS fluorophore absorbs at 340 nm and emits at 490 nm. The reaction is carried out in a 96 well plate in a total volume of 100 µL and is run for 12 minutes at 37C under steady-state conditions with 5 µM substrate and 2 nM active dimer enzyme concentration. The literature value Km for this substrate and enzyme is 103+/−8 μM (See Matayoshi, et al., “Novel Fluorogenic Substrates for Assaying Retroviral Proteases by Resonance Energy Transfer,” Science 247, 954 (1990)). The buffer for this reaction is 0.1M sodium acetate pH 4.8, 1M NaCl, 1 mM EDTA, 5 mM dithiothreitol, 10% dimethyl sulfoxide and 1 mg/ml bovine serum albumin. Inhibition curves are fit using the Morrison tight binding equation.
# HIV-1 = assay: Antiviral EC50 in HIV-infected T-cell lines (CPE inhibition / susceptibility assays); assay type: cell-based; details: Human immunodeficiency virus 1, T-cell, read-out: EC50 (wt) (nm), wt virus
# Description: T-cell lines, CEM-SS, and MT-2, and viruses HIV-1 RF and HIV-1 NL4-3 (pNL4-3) were obtained from the National Institutes of Health (AIDS Research and Reference Reagent Program, Bethesda, MD).
# The ability of compounds to protect cells against HIV infection was measured by the […] dye reduction method, essentially as described (See Pauwels, R. Balzarini, J. Baba, M. Snoeck, R. Schols, D. Herdewijn, P. Desmyter, J. and De Clercq, E. 1988, “Rapid and automated tetrazolium-based colorimetric assay for the detection of anti-HIV compounds,”. J Virol. Methods., 20: 309-321 and Weislow, O. S. Kiser, R. Fine, D. L. Bader, J. Shoemaker, R. H. and Boyd, M. R. 1989. “New soluble-formazan assay for HIV-1 cytopathic effects: application to high-flux screening of synthetic and natural products for AIDS-antiviral activity”. J. Natl. Cancer Inst. 81:577-586). Subject cells were infected with test virus at an moi of 0.025 to 0.819 or mock infected with medium only and added at 2×10^4 cells per well into 96 well plates containing half-log dilutions of test compounds. Six days later, 50 μl of XTT (1 mg/ml XTT tetrazolium, […] phenazine methosulfate) was added to the wells and the plate was reincubated for four hours. Viability, as determined by the amount of XTT formazan produced, was quantified spectrophotometrically by absorbance at 450 nm. Data from CPE assays were expressed as the percent of formazan produced in compound-treated cells compared to formazan produced in wells of uninfected, compound-free cells. The fifty percent effective concentration (EC50) was calculated as the concentration of compound that effected an increase in the percentage of formazan production in infected, compound-treated cells to 50% of that produced by uninfected, compound-free cells. The 50% cytotoxicity concentration (CC50) was calculated as the concentration of compound that decreased the percentage of formazan produced in uninfected, compound-treated cells to 50% of that produced in uninfected, compound-free cells. The therapeutic index was calculated by dividing the cytotoxicity (CC50) by the antiviral activity (EC50).
# Compounds were tested in phenotypic susceptibility assays at Virologic, Inc., (See Petropoulos C. J., Parkin N. T., Limoli K. L., Lie Y. S., Wrin T., Huang W., Tian H., Smith D., Winslow G. A., Capon D J, Whitcomb J M. 2000, “A novel phenotypic drug susceptibility assay for human immunodeficiency virus type 1,” Antimicrob Agents Chemother 44(4):920-928) or using the assay described here. MT-2 cells were infected with either HIV-1 NL4-3 or HIV-1 NL4-3(I84V/L90M) and incubated in the presence of serial 0.5 log dilutions of test compounds. Three days later, culture supernatants were collected and virus production, as determined by p24 ELISA, was assayed. Percent inhibition was calculated as p24 concentration in compound-treated samples as compared to infected, compound-free controls. Inhibition of viral replication is determined by measuring reduction in HIV p24 present in the culture supernatant, using a Beckman-Coulter p24 HIV-1 Ag EIA kit and following the supplied protocol. Absorbance is read on a MRX microplate reader (Dynex Technologies). The EC50 was calculated as the concentration of compound that effected a decrease in the p24 production by infected, compound-treated cells to 50% of that produced by infected, compound-free cells.
SMILES,Ki (HIV-1 protease) [nM],EC50 (HIV-1) [nM]
Cc1cc(O)c(C)c(C(=O)N[C@@H](Cc2ccccc2)[C@H](O)C(=O)N2CC(F)(F)C(C)(C)[C@H]2C(=O)NCc2ccncc2C)c1,< 0.1,34
CC(C)CNC(=O)[C@H]1N(C(=O)[C@@H](O)[C@H](Cc2cccc(F)c2)NC(=O)c2cccc3c2CCN3)CC(F)(F)C1(C)C,< 0.1,42
COC[C@H](C)NC(=O)[C@H]1N(C(=O)[C@@H](O)[C@H](Cc2cccc(F)c2)NC(=O)c2cccc(O)c2C)CC(F)(F)C1(C)C,< 0.1,100
CCCCNC(=O)[C@H]1N(C(=O)[C@@H](O)[C@H](Cc2cccc(F)c2)NC(=O)c2cccc(O)c2C)CC(F)(F)C1(C)C,< 0.1,32
CCCNC(=O)[C@H]1N(C(=O)[C@@H](O)[C@H](Cc2cccc(F)c2)NC(=O)c2cc(C)cc(O)c2C)CC(F)(F)C1(C)C,< 0.1,14
CCCNC(=O)[C@H]1N(C(=O)[C@@H](O)[C@H](Cc2ccccc2)NC(=O)c2c(C)ccc(O)c2C)CC(F)(F)C1(C)C,< 0.1,33
Cc1c(O)cccc1C(=O)N[C@@H](Cc1ccccc1)[C@H](O)C(=O)N1CC(F)(F)C(C)(C)[C@H]1C(=O)NCC(C)(C)C,< 0.1,4.7
Cc1cc(O)c(C)c(C(=O)N[C@@H](Cc2ccccc2)[C@H](O)C(=O)N2CC(F)(F)C(C)(C)C2C(=O)NCC(C)C)c1 (stereo partly shown),< 0.1,31
